Columns and labels:
[1] = test system: bovine serum albumin; test: Maillard reaction inhibiting activity (bovine serum albumin/D-fructose); conditions: 0.1 mM, 37° C., 5 days, pH 7.4
Experimental: A solution containing bovine serum albumin (4 mg/ml), 500 mM D-fructose and 200 mM potassium phosphate buffer (pH 7.4) was aseptically prepared. To the solution was added 0.1 mM of a test substance. The substance insoluble in water was added as an ethanolic solution so as the final concentration of ethanol to be less than 1%. After incubation of these solutions at 37° C. for 5 days, equivalent volume of a cold 10% trichloroacetic acid solution was added to the solution to precipitate proteins. The precipitate was collected by centrifugation, further washed with a cold 5% trichloroacetic acid solution, and dissolved again in a 200 mM potassium phosphate buffer. The solution was diluted appropriately with distilled water, and the fluorescence intensity at 425 nm was measured with an excitation wave length at 350 nm in a fluorescence spectrophotometer (Shimadzu Seisakusho, Ltd.). The inhibition activity was calculated from the following equation.
Inhibition activity (%)=(Fc-Fs)/(Fc-Fb)×100
Fs: fluorescence intensity in the presence of test substance;
Fc: fluorescence intensity in the absence of test substance;
Fb: fluorescence intensity in the absence of fructose.

[2] = test system: gastric ulcer; test: anti-ulcer test against indomethacin-induced gastric ulcer; assay type: in vivo, Wistar/ST male rats; conditions: for Length of ulcer: 30 minutes before indomethacin (50 mg/kg s.c.), control 47.75 ± 6.08; for Suppression rate: indomethacin ulcer, vs. control
Experimental: Ulcer was induced in Wistar/ST male rats having a weight of about 200 g (6 week-old) by indomethacin as a gastric ulcer inducing agent, and the anti-ulcer effects of the test samples were examined in the following six groups to which test samples were administered.
Each group comprises six rats.
______________________________________
Group 1: (control) physiological saline
Group 2: (comparative) cetraxate hydrochloride
Group 3: (the present invention) garcinol
Group 4: (the present invention) garcinol
Group 5: (the present invention) garcinol
Group 6: (the present invention) isogarcinol
In this connection, physiological saline containing 1% sodium carboxymethylcellulose was used as the control, and cetraxate hydrochloride (trade name "Neuer®S", Daiichi Pharmaceuticals Co., Ltd.) which is clinically used as an anti-ulcer agent was used as the comparative sample. The cetraxate hydrochloride insoluble in water was ground into fine powder with a mortar and a pestle and used as a suspension in a 1% sodium carboxymethylcellulose solution. Also, garcinol and isogarcinol in the form of fine powder were used as the suspensions in a 1% sodium carboxymethylcellulose solution in the concentrations which are the doses in the groups. In this connection, garcinol and isogarcinol used in the section of the present invention were those obtained in Referential Examples 1 and 2, respectively.
Experiment was carried out according to the method described by Yamahara et al. (see […] ZASSHI, 114, 401, 1994) which had been slightly modified. That is to say, indomethacin (50 mg/kg) was suspended in 1% sodium carboxymethylcellulose containing 0.1% Tween 20 (Sigma) and injected subcutaneously into the back of 24 hour fasted rats in an amount of 1 ml/rat. The samples in the six sections were orally administered at 30 minutes before administration of indomethacin. After 7 hours from the administration of indomethacin, rats were bleeded to death under anesthetization with nembutal, and stomach was isolated. A phosphate buffer (10 ml) containing 10% formalin was injected into the stomach, which was cut open after 10 minutes, and the length of lesion caused in the glandular stomach portion was defined as the lesion index, which was measured in the mm unit to evaluate the anti-ulcer effect. The suppression rate (%) in Table 1 means the value in which the difference of the length (mm) of ulcer in each group subtracted from the average length, 47.75 (mm) of ulcer in the control was divided with the average length, 47.75 (mm) of ulcer in the control. The larger the value, the stronger the anti-ulcer activity.

[3] = test system: bovine serum albumin; test: suppression of generation of reactive oxygen species in the presence of metal ion (oxidation of bovine serum albumin in Fenton reaction); assay type: biochemical; conditions: 1 mM test substance, 10 μM copper ion, 20 mM hydrogen peroxide, 4 mg/ml BSA
Experimental: The activity for suppressing the generation of reactive oxygen species in the presence of metal ion was evaluated by measuring the effect for suppressing the oxidation of bovine serum albumin by hydroxyl radical in the Fenton reaction system. That is to say, hydroxyl radical was first produced by divalent copper ion and hydrogen peroxide (Fenton reaction). Bovine serum albumin was oxidized by the hydroxyl radical, and thus carbonyl was produced. The carbonyl was reacted with 2,4-dinitrophenylhydrazine, and determined by measuring the absorbance at 365 nm. […] The ratio of decreases of absorbance was expressed as the activity for suppressing the generation of reactive oxygen species in the presence of metal ion.

[4] = survival rate of the cells in the EBV-EA induction inhibiting test; assay type: cell-based; conditions: human, raji cells, 8 μg/ml
Experimental: The EBV potentially infected human lymphoblasts (Raji) were first prepared in a concentration of 5×10^5 cell/ml, and cultured in an RPMI-1640 medium to which 3 mM n-butyric acid (inducer) and 50 nM TPA (12-O-tetradecanoylphorbol-13-acetate) (promoter) were added in an atmosphere of 5% carbon dioxide and 95% air under at a temperature of 37° C. for 48 hours. The cells in which EBV-EA had been induced were detected microscopically by indirect immunofluorescence with the serum of a nasopharyngeal carcinoma (NPC) patient. In this system, various concentrations (8 μg/ml, 40 μg/ml, and 200 μg/ml) of the test substance (garcinol sample shown in Referential Example 1) dissolved in DMSO (dimethylsolfoxide) were added together with the promoter to the cells. The activity of suppressing the induction of the Epstein-Barr virus early antigen was defined as the decreasing rate of the cells in which EBV-EA had been induced.

[5] = test system: mice; design: species or system ICR/crj male mice; conditions: mouse, in vivo
Experimental: ICR/crj male mice (5 week-old) having a weight of 29-32 g, each group comprising 5 animals.
Toxicity test by single administration was carried out in accordance with Guidelines of the Toxicity Test Method for Pharmaceuticals (Nichi-Yaku-Shin No. 118, released on Feb. 15, 1984, Notice of Second Section Manager of Examination of Pharmaceutical Affairs Bureau in Ministry of Health and Welfare to the Managers of Hygiene Division of Prefectures).
Garcinol was suspended into a physiological saline in a concentration of 30 mg/ml, and the suspension was administered orally to mice at a dose of 0.5 ml per 30 g of body weight (500 mg/kg of body weight) for observation for 14 days.

[6] = anti-oxidation activity (linoleic acid/β-carotene emulsion, autoxidation); conditions: 0.0005% test substance, pH 7.0, 25° C., 460 nm; lesser ratio = stronger
Experimental: The anti-oxidation activities was evaluated according to the method by A. Ben Aziz et al. […] That is to say, an emulsion of linoleic acid and β-carotene was first prepared with Tween 20 (Sigma) and adjusted to pH 7.0 with 0.1 M trishydroxyaminomethane-hydrochloride. […] During the reaction, the color degradation of β-carotene in association with the autoxidation of linoleic acid was measured with the passage of time as the decreased value of the optical density at 460 nm with a spectrophotometer. […] The antioxidant activity was measured as a ratio of the decreasing rate of absorbance in the presence of the substance to be tested to the decreasing rate of absorbance in the absence of the antioxidant.

[7] = superoxide scavenging activity test with phenazine methosulfate; conditions: 40 μM final concentration
Experimental: The active oxygen scavenging activity was evaluated according to the superoxide scavenging activity test with phenazine methosulfate. That is to say, dihydronicotinamide adenine dinucleotide and phenazine methosulfate were first reacted in a buffer at a physiological hydrogen ion concentration. The absorbance at 560 nm of a formazan pigment produced by the reduction of Nitro Blue Tetrazolium with superoxide was measured. […] The ratio of decreases of absorbance was expressed as superoxide scavenging activity.

For `C=C(C)[C@@H](CC=C(C)C)C[C@@]12C[C@@H](CC=C(C)C)C(C)(C)[C@@](CC=C(C)C)(C(=O)C(C(=O)c3ccc(O)c(O)c3)=C1O)C2=O` [garcinol], the “Maillard reaction inhibition activity” value [1] was 97%, the Length of ulcer ([2]; 50 mg/kg oral) was 5.75 ± 6.13 mm and the Suppression rate ([2]; 50 mg/kg oral) was 88.0%. The Length of ulcer ([2]; 100 mg/kg oral) was 4.00 ± 4.32 mm, the Suppression rate ([2]; 100 mg/kg oral) was 91.6% and the Length of ulcer ([2]; 200 mg/kg oral) was 3.00 ± 5.35 mm. For the same compound, the Suppression rate ([2]; 200 mg/kg oral) was 93.7%, the “ratio for suppressing the oxidation of bovine serum albumin” value [3] was 55% and the viability at 48 h [4] was no less than 80%. The “microscopic disorders in tissues or organs (autopsy)” value [5] was “no microscopic disorders in tissues or organs were observed”, the “antioxidant activity (ratio of the decreasing rate of absorbance with to without test substance)” value [6] was 0.50 and the superoxide scavenging rate [7] was 75%.
